Data on 1 compound can be found in PMC10541456, “A phase I, single‐center, open‐label study to investigate the absorption, distribution, metabolism and excretion of encorafenib following a single oral dose of 100 mg [ ^14C] encorafenib in healthy male subjects” (Pharmacology Research & Perspectives, 2023).

Where “and” joins values, the source holds several entries; their conditions need not be identical. Equal entries are not always repeated.

Assay type in all cases: in vivo, human
The nature of series [1]: Metabolite profiles in plasma (UPLC, radioactivity detection, MS). As to the method:
To the thawed plasma samples (1.5 mL plasma/ time points) two volumes of ice‐cold acetonitrile:ethanol:acetic acid (90:10:0.1, v/v) were added, followed by vortex mixing (10 min) and sonication (10 min). After centrifugation, the supernatants (4.2 mL) were evaporated to near dryness under a gentle stream of nitrogen on a TurboVap LV (Zymark Corp.). The residues were reconstituted in 80 μL of methanol:water:acetic acid (50:50:0.1, v/v) and 45 μL were injected into the ultra‐performance liquid chromatography (UPLC) system with off‐line radioactivity detection.
Characterization and quantification of the metabolites of encorafenib in select human plasma and excreta samples were performed by the Department of DMPK (Drug Metabolism and Pharmacokinetics) at the Novartis Institutes for Biomedical Research (East Hanover, NJ, USA) using liquid chromatography (LC) coupled to radioactivity detectors and mass spectrometers (MS).
The analytical system consisted of a Waters ACQUITY UPLC system (Waters), equipped with a Phenomenex Luna PFP column (3 μm, 4.6 × 150 mm) (Phenomenex) and a guard column of the same phase, both maintained at a temperature of 30°C. The mobile phases consisted of 10 mM ammonium acetate containing 0.1% formic acid (v/v) (solvent A) and CH3CN (solvent B). The total run time was 80 min. A linear gradient elution program was used with a flow rate of 1 mL/min as described in Table 1.
The UPLC effluent was split 4:1, with […] of the total flow introduced to the mass spectrometer for mass spectral analysis and the remaining flow used for radioactivity detection.
For off‐line radioactivity detection, the eluant was collected into 96‐well Lumaplate (Packard Instrument Co) microplates using a Collect Pal fraction collector (Leap Technologies) with a collection time of 10 seconds per well. The LumaPlates were sealed after drying and counted for 10–50 min per well on a Packard Topcount microplate scintillation counter. The structural characterization of metabolites was carried out using the above UPLC profiling method coupled to a two‐channel Z‐spray (LockSprayTM) time‐of‐flight mass spectrometer (Synapt MS). Leucine enkephalin was used as the mass reference standard for exact mass measurements and was delivered via the second spray channel at a flow rate of 5 μL/minute. The mass spectrometer was operated at a resolution of ~10 000 m/ΔmFWHM with spectra being collected from 100 to 1000 amu. The ionization technique employed was positive electrospray. The sprayer voltage was kept at 3100 V and the sampling cone voltage was kept at a potential of 20 V. For the time‐of‐flight MS/MS experiments, trap energies of 25 to 45 eV and transfer energy of 15 eV were used with argon as the collision gas.
All radioactivity data were transferred to Laura software (version 4.2.2.24, Lab Logic Ltd, UK) to generate and integrate radio‐chromatograms. Radioactive peaks for quantitative analysis were manually selected from the plots. The radioactivity in the region encompassing the beginning and end of the peak was summed. All further calculations were based on radioactivity.
The percent of radioactivity (%RA) in a particular peak, Z, was calculated as follows in Equation (1): (1) %RAinZ=DPMin PeakZ/totalDPMinallintegrated peaksx100
The concentration or amount of each component was calculated as % RA (expressed as a fraction) multiplied by the total concentration of radioactivity in plasma, or the percent of dose in the excreta.

Series [2] is described as follows: Total radioactivity PK in plasma. As to the method: (§1) Venous blood samples (18 mL/time point) were collected by either direct venipuncture or from an indwelling cannula inserted into a vein of the forearm into tubes containing potassium ethylene diamine tetra acetic acid (K2‐EDTA) at the following times for metabolite characterization, total radioactivity and parent drug analysis: Pre‐dose, 0.5, 1, 1.5, 2, 3, 4, 6, 8, 12, 24, 48, 72, 96, 120 and 144 h post‐dose. Urine samples were collected into pre‐weighed, uniquely labeled containers pre‐dose (before drug administration) and at the following intervals: 0–4, 4–8, 8–24, 24–48, 48–72, 72–96, 96–120 and 120–144 h post‐dose. Feces samples were collected quantitatively into uniquely labeled, polypropylene containers pre‐dose (before drug administration) and individually until 144 h post‐dose. Urine and feces samples were frozen at −20°C and blood samples at −70°C.
(§2) Analysis of total radioactivity data in plasma, blood, feces, and urine was performed by Covance Laboratories Inc. All sample combustions were performed in a Model 307 Sample Oxidizer (Packard Instrument Company) and the resulting ^14CO2 was trapped in a mixture of Perma Fluor™ (Perkin Elmer) and Carbo Sorb® (Perkin Elmer). Oxidation efficiency was evaluated on each day of sample combustion by analyzing a commercial radiolabeled standard both directly in a scintillation cocktail and by oxidation. […] EcoLite™(+) scintillation cocktail was used for samples analyzed directly. All samples were analyzed for radioactivity in Model 2900TR or 2910TR liquid scintillation counters (Packard Instrument Company) for at least 5 min or 100 000 counts. Each sample was homogenized or mixed before radioanalysis (unless the entire sample was used for analysis). All samples were analyzed in duplicate or triplicate, as applicable, if sample size allowed. If results from sample replicates (calculated as ^14C disintegrations per minute (dpm)/g sample) differed by more than 10% from the mean value and sample aliquots had radioactivity greater than 200 dpm, the sample was re‐homogenized or remixed and reanalyzed (if the sample size permitted).
(§3) Blood samples were mixed and duplicate aliquots of each (approximately 0.4 g) were combusted and analyzed by liquid scintillation […]. Plasma and urine samples were separately mixed and duplicate weighed aliquots of each (approximately 0.4 g for plasma and 0.2 g for urine) were analyzed directly by LSC. Urine volumes provided by the Covance clinical research unit were entered as a weight assuming a specific gravity of 1 g/mL. Feces samples were analyzed individually (samples were not combined by interval) and the weight of each individual sample was recorded. A weighed amount of methanol:water (20:80, v:v; approximately 2 to 3 times the sample weight, such that the homogenate weight:sample weight ratio was approximately 3 to 4) was added and the sample was mixed and homogenized using a probe type homogenizer. Triplicate‐weighed aliquots (approximately 0.2 g) were combusted and analyzed by LSC. The empty treatment vial from each subject was analyzed by adding a weighed amount of methanol to each vial and analyzing duplicate weighed aliquots (approximately 0.5 g) of each extract by LSC. Residual radioactivity recovered from each treatment vial was subtracted from the dose administered to the appropriate subject.
The total radioactivity in blood and plasma was determined by LSC. Nominal sampling time points were used for deriving total radioactivity blood and plasma PK data. […]

Series [3] in a line: Total radioactivity PK in whole blood. Here is the method:
as §1, §2, §3
The total radioactivity in blood and plasma was determined by LSC. Nominal sampling time points were used for deriving total radioactivity blood and plasma PK data. PK parameters (maximum concentration (C max), time to maximum concentration (T max), terminal half‐life(t 1/2) time to last measurable concentration (T last), area under the curve to the last measurable time point (AUClast), area under the curve extrapolated to infinity (AUCinf)) describing blood and plasma total radioactivity were determined using non‐compartmental methods via WinNonlin® Professional (Version 6.3, Pharsight). […]

The mark [4] stands for this setting: whole blood, Median (Minimum–Maximum).

Regarding `COC(=O)N[C@@H](C)CNc1nccc(-c2cn(C(C)C)nc2-c2cc(Cl)cc(NS(C)(=O)=O)c2F)n1` [encorafenib], the “Mean (range) Circulating Radioactivity in Plasma Based on AUC0-24” value in series [1] (100 mg oral [14C] encorafenib) is 4400 (2340–7140) ngEq/mL*h. Further, the “Mean (range) Circulating Radioactivity in Plasma Based on AUC0-24 (%)” value in series [1] (M12.8 value is sum of M12.8 and M13.2) is 27.5%; in series [1] (M12.8 value is sum of M12.8 and M13.2, listed as Encorafenib (LGX818)), 27.5 (17.9–36.4) %. Besides, the “Cmax, total radioactivity” value in series [2] (Mean (SD)) is 2170 (107) ngEq/mL; in series [2] (Median (Minimum–Maximum)), 2190 (2020–2330) ngEq/mL; in series [3] (whole blood, Mean (SD)), 1330 (103) ngEq/mL; in series [3] (setting [4]), 1320 (1230–1460) ngEq/mL. Also, the “T1/2, total radioactivity” value in series [2] (Mean (SD)) is 5.1 h and 5.1 (1.30) h; in series [2] (Median (Minimum–Maximum)), 4.5 (7.1–4.3) h; in series [3] (whole blood, Mean (SD)), 4.8 h and 4.8 (0.48) h; in series [3] (setting [4]) it was 4.6 (4.5–5.5) h. In addition, the “Tmax, total radioactivity” value in series [2] (Median (Minimum–Maximum)) worked out at 1.3 h; in series [3] (setting [4]) it was 1.0 h. Moreover, the “[blood]:[plasma] AUC ratio for total radioactivity” value in series [3] (mean) came to 0.58. Moreover, the “[blood]/[plasma] total radioactivity, 1 to 24 h post-dose” value in series [3] (mean (SD)) was 0.59 [0.02]. Besides, the “AUCinf, total radioactivity” value in series [3] (whole blood, Mean (SD)) is 8950 (1310) ngEq*h/mL; in series [3] (setting [4]), 8760 (7670–10 600) ngEq*h/mL.
